Entries after “also recorded” stand apart in the source; their conditions may differ. One block for each compound: values may come before it.
Columns and labels:
[1] = molecular target: T1, VBC protein (VHL:ElonginB:ElonginC protein complex) (Homo sapiens, UniProt P40337); assay type: binding; conditions: based on FP results, GE = ΔpKd/ΔHA (heavy atoms)
T1 construct: made in house

HIF-1α = test: cells; conditions: Homo sapiens, HeLa, 2 h, read-out: HIF-1α Stabilization (Protein % levels), HeLa cells, 50 μM inhibitor, 2 h, Western blot, normalized to level observed with 1
[2] = Intracellular drug concentration (accumulation in HeLa cells); assay type: in vitro ADME, Human; conditions: human; HeLa cell lysate, equilibrium dialysis; read-out: Fraction unbound (fu)
HeLa cells [3] = test: as above; assay type: in vitro ADME, Human; conditions: HeLa cells, 50 μM, 2 h
[4] = Intrinsic clearance (Cli) in liver microsomes; assay type: in vitro ADME; conditions: female CD1 mouse liver microsomes, 0.5 μM compound
[5] = molecular target: T2, VBC complex (VHL:ElonginB:ElonginC) (Homo sapiens, UniProt P40337); assay type: binding; conditions: for LE: LE = −RT ln Kd/NHA; for LE / LLE: on the basis of ITC results; for LLE: LLE = pKd–Log D
T2 construct: made in house
T2 sequence (Q15369 17-112): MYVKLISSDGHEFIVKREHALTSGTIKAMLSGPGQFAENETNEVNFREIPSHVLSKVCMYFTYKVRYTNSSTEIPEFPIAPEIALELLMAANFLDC
T2 sequence (P40337 54-213): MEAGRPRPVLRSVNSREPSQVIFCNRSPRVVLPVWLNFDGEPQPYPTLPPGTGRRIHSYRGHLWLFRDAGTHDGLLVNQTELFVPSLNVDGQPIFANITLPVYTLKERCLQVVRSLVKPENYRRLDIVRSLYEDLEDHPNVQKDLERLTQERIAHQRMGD
T2 sequence (Q15370 1-104, further chain): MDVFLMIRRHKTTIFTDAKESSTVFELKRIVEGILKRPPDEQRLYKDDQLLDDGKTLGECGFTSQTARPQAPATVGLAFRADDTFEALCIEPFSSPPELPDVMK

HeLa cells [6] = test: Colony formation assay; assay type: cell-based, Human; conditions: 150 μM
HeLa cells [7] = test: Proliferation assay; assay type: cell-based, Human; conditions: 150 μM, relative to DMSO vehicle
immobilized VBC protein = molecular target: T3, immobilized VBC protein (Homo sapiens, UniProt P40337); test: biochemical; assay type: binding; conditions: for Dissociative t1/2: t1/2 = ln2/koff; for kon: SPR
T3 construct: made in house
T3 sequence (Q15369 17-112): as the sequence (Q15369 17-112) above
T3 sequence (Q15370 1-104, further chain): as the sequence (Q15370 1-104, further chain) above
T3 sequence (P40337 54-213): as the sequence (P40337 54-213) above

[8] = Parallel Artificial Membrane Permeability Assay (PAMPA); assay type: in vitro ADME; conditions: pH 7.4, as printed in text and footnote

T1 sequence (P40337 54-213): as above
T1 sequence (Q15369 17-112, further chain): as the sequence (Q15369 17-112) above
T1 sequence (Q15370 1-104, further chain): as the sequence (Q15370 1-104, further chain) above

Compound: CC(=O)N[C@H](C(=O)N1C[C@H](O)C[C@H]1C(=O)NCc1ccc(-c2scnc2C)cc1)C(C)(C)C [Inhibitor 1]
Emax at 50 µM (HIF-1α): 100 ± 7% | fraction unbound [2]: 0.0016 | Compound associated with cells (HeLa cells [3]): 463.8 µM | Microsomal stability (intrinsic clearance) [4]: 0.7 mL/min/g

Compound: Cc1ncsc1-c1ccc(CNC(=O)[C@@H]2C[C@@H](O)CN2C(=O)[C@@H](NC(=O)OC(C)(C)C)C(C)(C)C)cc1 [Inhibitor 2]
GE (group efficiency) [1]: −0.41

Compound: Cc1ncsc1-c1ccc(CNC(=O)[C@@H]2C[C@@H](O)CN2C(=O)[C@@H](NC(=O)CO)C(C)(C)C)cc1 [Inhibitor 3, (2S,4R)-4-Hydroxy-1-((S)-2-(2-hydroxyacetamido)-3,3-dimethylbutanoyl)-N-(4-(4-methylthiazol-5-yl)benzyl)pyrrolidine-2-carboxamide]
LE [5]: 0.27 kcal × mol^-1 × NHA^-1 | LLE [5]: 6.28 kcal × mol^-1 × NHA^-1 | GE (group efficiency) [1]: −0.11

Compound: Cc1ncsc1-c1ccc(CNC(=O)[C@@H]2C[C@@H](O)CN2C(=O)[C@@H](NC(=O)CC(C)(C)C)C(C)(C)C)cc1 [Inhibitor 5, (2S,4R)-1-((S)-2-(3,3-Dimethylbutanamido)-3,3-dimethylbutanoyl)-4-hydroxy-N-(4-(4-methylthiazol-5-yl)benzyl)pyrrolidine-2-carboxamide]
GE (group efficiency) [1]: −0.12

Compound: Cc1ncsc1-c1ccc(CNC(=O)[C@@H]2C[C@@H](O)CN2C(=O)[C@@H](NC(=O)C2CC2)C(C)(C)C)cc1 [Inhibitor 6, (2S,4R)-1-((S)-2-(Cyclopropanecarboxamido)-3,3-dimethylbutanoyl)-4-hydroxy-N-(4-(4-methylthiazol-5-yl)benzyl)pyrrolidine-2-carboxamide]
LE [5]: 0.26 kcal × mol^-1 × NHA^-1 | LLE [5]: 5.68 kcal × mol^-1 × NHA^-1 | GE (group efficiency) [1]: −0.02

Compound: Cc1ncsc1-c1ccc(CNC(=O)[C@@H]2C[C@@H](O)CN2C(=O)[C@@H](NC(=O)C(F)(F)F)C(C)(C)C)cc1 [Inhibitor 7, (2S,4R)-1-((S)-3,3-Dimethyl-2-(2,2,2-trifluoroacetamido)butanoyl)-4-hydroxy-N-(4-(4-methylthiazol-5-yl)benzyl)pyrrolidine-2-carboxamide]
GE (group efficiency) [1]: −0.08

Compound: Cc1ncsc1-c1ccc(CNC(=O)[C@@H]2C[C@@H](O)CN2C(=O)[C@@H](NC(=O)C(Cl)(Cl)Cl)C(C)(C)C)cc1 [Inhibitor 8, (2S,4R)-1-((S)-3,3-Dimethyl-2-(2,2,2-trichloroacetamido)butanoyl)-4-hydroxy-N-(4-(4-methylthiazol-5-yl)benzyl)pyrrolidine-2-carboxamide]
GE (group efficiency) [1]: −0.04

Compound: Cc1ncsc1-c1ccc(CNC(=O)[C@@H]2C[C@@H](O)CN2C(=O)[C@@H](NC(=O)C2(F)CC2)C(C)(C)C)cc1 [Inhibitor 10, (2S,4R)-1-((S)-2-(1-Fluorocyclopropanecarboxamido)-3,3-dimethylbutanoyl)-4-hydroxy-N-(4-(4-methylthiazol-5-yl)benzyl)pyrrolidine-2-carboxamide]
toxicity in colony formation assay (HeLa cells [6]): a degree of cytotoxicity; also recorded: toxicity | toxicity in cell-proliferation assay (HeLa cells [7]): notably decreased cell proliferation; also recorded: toxicity | Dissociative t1/2 (immobilized VBC protein; 10°C (first value of cell)): 11.94 ± 0.08 s | Dissociative t1/2 (immobilized VBC protein; 20°C (second value of cell)): 7.073 ± 0.007 s | fraction unbound [2]: 0.0002 | Compound associated with cells (HeLa cells [3]): 383.6 µM | Final free compound concentration in cells (HeLa cells [3]): 0.071 µM | Microsomal stability (intrinsic clearance) [4]: 2.9 mL/min/g | Papp at 5 h, 10 μM [8]: 27.1 nm/s

Compound: Cc1ncsc1-c1ccc(CNC(=O)[C@@H]2C[C@@H](O)CN2C(=O)[C@@H](NC(=O)C2(C#N)CC2)C(C)(C)C)cc1 [Inhibitor 15, (2S,4R)-1-((S)-2-(1-Cyanocyclopropanecarboxamido)-3,3-dimethylbutanoyl)-4-hydroxy-N-(4-(4-methylthiazol-5-yl)benzyl)pyrrolidine-2-carboxamide]
toxicity in colony formation assay (HeLa cells [6]): no toxicity | fraction unbound [2]: 0.0007 | Compound associated with cells (HeLa cells [3]): 150.0 µM | Microsomal stability (intrinsic clearance) [4]: 3.1 mL/min/g | Papp at 5 h, 10 μM [8]: 19.4 nm/s

Compound: COCCc1ccc(OCC(O)CNC(C)C)cc1 (centres unmarked) [Metoprolol, reference compound]
fraction unbound [2]: 0.005

Compound: Cc1ncsc1-c1ccc(CNC(=O)[C@@H]2C[C@H](O)CN2C(=O)[C@@H](NC(=O)C2(F)CC2)C(C)(C)C)cc1 [cis-10, (2S,4S)-1-((S)-2-(1-Fluorocyclopropanecarboxamido)-3,3-dimethylbutanoyl)-4-hydroxy-N-(4-(4-methylthiazol-5-yl)benzyl)pyrrolidine-2-carboxamide]
toxicity in colony formation assay (HeLa cells [6]): a degree of cytotoxicity | toxicity in cell-proliferation assay (HeLa cells [7]): a degree of cytotoxicity | binding to VHL ([5]; ITC and FP binding curves, Figure 2): no longer binds to VHL

Compound: CC(C)NCC(O)COc1cccc2ccccc12 (centres unmarked) [propanolol, reference compound]
Compound associated with cells (HeLa cells [3]): 2679.0 µM

Further lines, results first:

GE (group efficiency) [1]: –0.19
Compound: Cc1ncsc1-c1ccc(CNC(=O)[C@@H]2C[C@@H](O)CN2C(=O)[C@@H](NC(=O)C2(F)CC2)C(C)O)cc1 (stereo in doubt) [Inhibitor 14, (2S,4R)-1-((2S,3S)-2-(1-Fluorocyclopropanecarboxamido)-3-hydroxybutanoyl)-4-hydroxy-N-(4-(4-methylthiazol-5-yl)benzyl)pyrrolidine-2-carboxamide]

GE (group efficiency) [1]: −0.24
Compound: Cc1ncsc1-c1ccc(CNC(=O)[C@@H]2C[C@@H](O)CN2C(=O)[C@@H](NC(=O)C(C)(C)F)C(C)(C)C)cc1 [Inhibitor 9, (2S,4R)-1-((S)-2-(2-Fluoro-2-methylpropanamido)-3,3-dimethylbutanoyl)-4-hydroxy-N-(4-(4-methylthiazol-5-yl)benzyl)pyrrolidine-2-carboxamide]

GE (group efficiency) [1]: −0.48
Compound: Cc1ncsc1-c1ccc(CNC(=O)[C@@H]2C[C@@H](O)CN2C(=O)[C@@H](N2CCCC2=O)C(C)(C)C)cc1 [Inhibitor 12, (2S,4R)-1-((S)-3,3-Dimethyl-2-(2-oxopyrrolidin-1-yl)butanoyl)-4-hydroxy-N-(4-(4-methylthiazol-5-yl)benzyl)pyrrolidine-2-carboxamide]

LE [5]: 0.25 kcal × mol^-1 × NHA^-1 | LLE [5]: 5.63 kcal × mol^-1 × NHA^-1 | Dissociative t1/2 (immobilized VBC protein; 10°C (first value of cell)): 10.04 ± 0.01 s | Dissociative t1/2 (immobilized VBC protein; 20°C (second value of cell)): 4.101 ± 0.007 s | kon (immobilized VBC protein; 10°C): 600000 M⁻¹ s⁻¹ | kon (immobilized VBC protein; 20°C): 820000 M⁻¹ s⁻¹ | fraction unbound [2]: 0.0008 | Compound associated with cells (HeLa cells [3]): 100.0 µM | Final free compound concentration in cells (HeLa cells [3]): 0.046 µM | Microsomal stability (intrinsic clearance) [4]: 2.5 mL/min/g | Papp at 5 h, 10 μM [8]: 15 nm/s | GE (group efficiency) [1]: –0.01
Compound: CC(=O)C1(C(=O)N[C@H](C(=O)N2C[C@H](O)C[C@H]2C(=O)NCc2ccc(-c3scnc3C)cc2)C(C)(C)C)CC1 [Inhibitor 16, (2S,4R)-1-((S)-2-(1-Acetylcyclopropanecarboxamido)-3,3-dimethylbutanoyl)-4-hydroxy-N-(4-(4-methylthiazol-5-yl)benzyl)pyrrolidine-2-carboxamide]

LE [5]: 0.24 kcal × mol^-1 × NHA^-1 | LLE [5]: 6.28 kcal × mol^-1 × NHA^-1 | GE (group efficiency) [1]: –0.05
Compound: CC(=O)NC1(C(=O)N[C@H](C(=O)N2C[C@H](O)C[C@H]2C(=O)NCc2ccc(-c3scnc3C)cc2)C(C)(C)C)CC1 [Inhibitor 17, (2S,4R)-1-((S)-2-(1-Acetamidocyclopropanecarboxamido)-3,3-dimethylbutanoyl)-4-hydroxy-N-(4-(4-methylthiazol-5-yl)benzyl)pyrrolidine-2-carboxamide]

LE [5]: 0.25 kcal × mol^-1 × NHA^-1 | LLE [5]: 5.38 kcal × mol^-1 × NHA^-1 | Dissociative t1/2 (immobilized VBC protein; 10°C (first value of cell)): 4.95 ± 0.01 s | Dissociative t1/2 (immobilized VBC protein; 20°C (second value of cell)): 2.71 ± 0.01 s | kon (immobilized VBC protein; 10°C): 517000 M⁻¹ s⁻¹ | kon (immobilized VBC protein; 20°C): 1.1e+06 M⁻¹ s⁻¹ | fraction unbound [2]: 0.0008 | Compound associated with cells (HeLa cells [3]): 204.0 µM | Final free compound concentration in cells (HeLa cells [3]): 0.093 µM | Microsomal stability (intrinsic clearance) [4]: 3.0 mL/min/g | GE (group efficiency) [1]: –0.07
Compound: Cc1ncsc1-c1ccc(CNC(=O)[C@@H]2C[C@@H](O)CN2C(=O)[C@@H](NC(=O)C2CCC2)C(C)(C)C)cc1 [Inhibitor 18, (2S,4R)-1-((S)-2-(Cyclobutanecarboxamido)-3,3-dimethylbutanoyl)-4-hydroxy-N-(4-(4-methylthiazol-5-yl)benzyl)pyrrolidine-2-carboxamide]

Source: publication PMC5788404 (Journal of Medicinal Chemistry, 2017)
